The subject of test [1] is orthotopic xenografts of PDAC with AsPC-1 cells. Kind of test: Orthotopic PDAC xenograft model, tumor growth kinetics. It counts as in vivo. Conditions: THU 10 mg/kg three times weekly, 35 days. As to the method: Orthotopic mouse models with human PDAC cells were generated using NOD/SCID mice. In vivo BLI was conducted on a NiteOwl system and acquisition software. Data were analyzed using eLumenate analysis software. For the primary tumor, signal intensity was quantified as the sum of all detected photon counts within a region of interest selected by an automated maximum entropy method and normalized to the area of that region of interest. For the metastatic region, a region of interest was drawn manually in a “crescent” shape which encompassed all of the abdominal region except the primary tumor and maintained a boundary at least 2 mm away from the ROI for the primary. The signal in the metastatic region was again quantified by dividing the sum of all detected photon counts in the region by the area of the region.
Referring to FIG. 30, bioluminescent and primary PDAC cell lines ASPC1 and MiPaCa-2 were used to generate PDAC xenografts for therapeutic validation. At 22 days post injection of tumor cells, tumor growth and metastatic dissemination are detected in this orthotopic models in NOD/SCID mice. Referring to FIG. 31, orthotopic xenografts of PDAC with AsPC-1 cells were treated with vehicle control, Tetrahydrouridine (THU, 10 mg/kg), Decitabine (DAC, 0.2 mg/kg), or combination of THU (10 mg/kg) with DAC (0.1 mg/kg) three times weekly. […]

Test [2] relates to PDAC cell lines ASPC1, MiaPaCa-2, BXPC3. Put plainly: Cell proliferation of PDAC cell lines by automated IncuCyte incubator. The class given is cell-based, human. As to the method:
A panel of pancreatic cancer cell lines (PCCs) was ordered from ATCC (https://www.atcc.org). Cells were cultured in RPMI media supplemented with 10% FBS and 1% penicillin streptomycin (100 units/ml of penicillin and […] of streptomycin) in a 37° C. incubator with 5% Carbon dioxide (CO2). All cell lines were confirmed to be mycoplasma-free using a Mycoalert detection kit (Lonza Allendale N.J., catalog #LT07-218) as per manufacturer's protocol. For DT1, DAC, and THU treatments, 1000 cells were plated in a 96 well plate overnight. Cells were treated three times at 24, 48, and 72 hours post-plating using concentrations of 0.2-2 μM of DT1 and DAC and 1-2 μM of THU independently or in combination. DMSO was used as a vehicle control. Cell proliferation was measured in a 37° C., Incucyte incubator (IncuCyte™ live-cell, Essen biosciences, Michigan USA) with 5% CO2 for automated live cell proliferation in real time, and images were taken every 6 hours for up to 160 hours. Cells were also counted on a Beckman coulter automated cell counter. Referring now to FIG. 27, primary PDAC cell line ASPC1 was incubated with 2 μM DT1 to inhibit UHRF1 and/or DNMT1 inhibitor DAC or CDA inhibitor THU (1 μM) or […], 0.2 μM DAC and THU (1 μM). Cell proliferation was quantified by automated IncuCyte incubator for 160 hours. […] Referring now to FIG. 28, primary PDAC cell line MiaPaCa-2 was incubated with 2 μM DT1 to inhibit UHRF1 and/or DNMT1 inhibitor DAC or CDA inhibitor THU (1 μM) or […], 0.2 μM DAC, and THU (1 μM). Cell proliferation was quantified by automated IncuCyte incubator for 160 hours. […] Referring now to FIG. 29, primary PDAC cell line BXPC3 was incubated with 2 μM DT1 to inhibit UHRF1 and/or DNMT1 inhibitor DAC or CDA inhibitor THU (1 μM) or […], 0.2 μM DAC, and THU (1 μM). Cell proliferation was quantified by automated IncuCyte incubator for 160 hours. […] Decitabine (DAC) is a clinically available drug that degrades DNMT1 to decrease DNA methylation while DT1 targets UHRF1.

Test [3] has as its system ASPC1 and BXPC3 cells. Kind of test: Gene expression of pancreas differentiation factors by qPCR. It counts as cell-based, human. The note with it: DT1 at 0.5-2 μM. As for the experimental part:
Gene expression analysis by real time quantitative polymerase chain reaction (qRT-PCR) was performed using standard methods. Gene expression of target genes was performed using either SYBR green methods or Power Green ROX dye master mix (Applied Biosystems, Foster city CA, USA Lot number 1610538). Assays were performed with an Applied Biosytems ViiA7 (Life Technologies).
Referring now to FIG. 23, primary PDAC cells were incubated with 2 μM of DT1 and 1 uM of THU for 96 hrs. RNA was isolated and gene expression pancreas differentiation factors were analyzed in ASPC1 and BXPC3 cells. Referring now to FIG. 24, primary PDAC cell line ASPC1 was treated with 1 μM of THU, 2 μM of DT1, and 1 μM of DAC, or the combination of 0.5 μM of DT1 plus 0.2 μM of DAC, or 1 μM of THU and 0.5 μM of DT1 plus 0.2 μM of DAC. Morphological analysis was performed using a giemsa staining method to determine induction of differentiation (enlargement of cytoplasm and reduction of nuclear compartments). Black bar=200× magnification. Referring now to FIG. 25, primary PDAC cell line ASPC1 was treated with 100 nM of ATRA and 1 μM of DAC, or combination of 100 nM of ATRA plus 200 nM of DAC. […] DNA (100 ng) was isolated at 96 hours post transfection and was used to quantify global 5-methyla-cytosine (5-mC) methylation using LINE1 global DNA methylation kit (ACTIVE MOTIF). […]

Test [4] has as its system pancreatic cancer cell line ASPC1. Kind of test: LINE1 global 5-methyl-cytosine DNA methylation assay in treated or transfected cells. It counts as cell-based, human. Conditions: concentration not given. As to the method: DNA Methylation of normal pancreas and PDAC tumor samples was analyzed using data available through the MethHC database (http://methhc.mbc.nctu.edu.tw/php/index.php) using the PAAD dataset. Methylation analysis was performed at transcriptional start sites (TSS), promoters, and CpG island. For global DNA methylation changes, cells were transfected with shRNA against human UHRF1 (Dharmacon Horizon, catalog V3SH7590-225743149) for 96 hours or treated with THU (1 μM) DT1 (0.5-15 μM) or 5-aza-cytidine (1 μM). DNA was isolated using the Clonetech NucleoSpin DNA rapid lyse kit (catalog 740110.1) following manufacture's recommended conditions. 100 ng of isolated DNA was used to quantify DNA methylation using the 5mC-Long Interspersed Nucleotide Element 1 (LINE-1) kit from Active Motif (catalog number 55017) following the manufacture's recommendations. A Colorimetric ELISA readout was measured on a BioTek synhergy HI reader at 450 nm.
Referring now to FIG. 17, pancreatic cancer cell line ASPC1 was transfected with shRNA against UHRF1. DNA (100 ng) was isolated from shUFRF1 and scramble transfected cells at 96 hours post transfection and was used for quantification of global 5-methyl-cytosine methylation using LINE1 global DNA methylation kit (ACTIVE MOTIF).
Referring now to FIG. 23, primary PDAC cells were incubated with 2 μM of DT1 and 1 uM of THU for 96 hrs. […]

Test [5] deals with primary PDAC cell line ASPC1. Kind of test: Morphological analysis by giemsa staining for induction of differentiation. It counts as cell-based, human. Conditions: DT1 at 0.5-2 μM. As to the method:
Referring now to FIG. 23, primary PDAC cells were incubated with 2 μM of DT1 and 1 uM of THU for 96 hrs. RNA was isolated and gene expression pancreas differentiation factors were analyzed in ASPC1 and BXPC3 cells. Referring now to FIG. 24, primary PDAC cell line ASPC1 was treated with 1 μM of THU, 2 μM of DT1, and 1 μM of DAC, or the combination of 0.5 μM of DT1 plus 0.2 μM of DAC, or 1 μM of THU and 0.5 μM of DT1 plus 0.2 μM of DAC. Morphological analysis was performed using a giemsa staining method to determine induction of differentiation (enlargement of cytoplasm and reduction of nuclear compartments). Black bar=200× magnification. Referring now to FIG. 25, primary PDAC cell line ASPC1 was treated with 100 nM of ATRA and 1 μM of DAC, or combination of 100 nM of ATRA plus 200 nM of DAC. Morphological analysis was performed using a giemsa staining method to determine induction of differentiation (enlargement of cytoplasm and reduction of nuclear compartments). Black bar=200× magnification. Referring now to FIG. 26, pancreatic cancer cell line ASPC1 was treated with DMSO as control, 1 μM of THU, and varying DT1 concentrations. DNA (100 ng) was isolated at 96 hours post transfection and was used to quantify global 5-methyla-cytosine (5-mC) methylation using LINE1 global DNA methylation kit (ACTIVE MOTIF). […]

On to `O=C1NC(O)CCN1[C@@H]1O[C@H](CO)[C@@H](O)[C@H]1O` (stereo partly shown) [THU, tetrahydrouridine, reference compound], for which the tumor growth kinetics result in test [1] is given as “did not affect tumor growth kinetics”. In addition, the PDAC proliferation result in test [2] (alone or in combination, methods: 0.2-2 μM of DT1 and DAC, 1-2 μM of THU) was “did not inhibit PDAC proliferation alone”.
Take `C/C(=N\O)c1c[nH]c(=O)[nH]c1=O` [DT1]: in test [3], the “expression of pancreas differentiation factors” value is “upregulated pancreas differentiation factors”. In test [2], the “concentration range at which DT1 activity was observed” value is on record as “micromolar range”. For the same compound, the PDAC proliferation result in test [2] (DT1 at 0.5-2 μM) was “decreased PDAC proliferation”. For the same compound, the “global DNA methylation” value in test [4] is recorded as “decreased global DNA methylation”. Besides, the differentiation-based morphological changes entry in test [5] is recorded as “induced differentiation-based morphological changes”.

The values above are taken from patent publication US20210077492A1, “METHODS AND COMPOSITIONS OF TREATING PANCREATIC CANCER” (The Trustees of Indiana University, priority 2019, published 2021).
